Experimental findings from US20240092784A1, “CONDENSED HETEROCYCLIC COMPOUND” (NISSAN CHEMICAL CORPORATION, priority 2020, published 2024) are described below.

Where a name gives a salt, the structure may show the parent alone.

human SPR, sequence (P35270 whole entry): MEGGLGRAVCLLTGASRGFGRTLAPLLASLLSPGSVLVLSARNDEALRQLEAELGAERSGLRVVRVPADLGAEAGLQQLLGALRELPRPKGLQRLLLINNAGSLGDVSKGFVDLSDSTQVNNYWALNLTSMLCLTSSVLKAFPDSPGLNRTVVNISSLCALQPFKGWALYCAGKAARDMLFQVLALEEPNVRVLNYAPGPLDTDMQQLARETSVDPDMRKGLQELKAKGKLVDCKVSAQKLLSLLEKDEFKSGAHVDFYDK

One experiment concerns the target human SPR (Homo sapiens (Human), UniProt P35270). The experiment is described as follows: Evaluation Example 2: Measurement of human SPR inhibitory activity (seven concentrations, sepiapterin absorbance at 420 nm). In kind it is biochemical. As to conditions: Evaluation Example 2, seven concentrations 0.14 nM to 100 nM, 240 minutes at room temperature, read-out: IC50. As to the method:
Human SPR was prepared as described below. The full-length human SPR (1-261) cDNA was purchased from Eurofins Genomics as an artificially synthesized plasmid containing a DNA sequence optimized for the E. coli expression system so that the sequence of the expressed protein after transcription and translation matches the sequence described in UniprotKB (P35270).
Linearized insert and vector were prepared by PCR using primers designed for amplification of human SPR cDNA and primers designed to contain the thrombin recognition sequence of pET28a (Novagen) and a polyhistidine tag. Cloning was performed using In-Fusion (registered trademark) HD Cloning Kit (TaKaRa) to thereby construct a human SPR expression plasmid. The resultant human SPR expression plasmid was transformed into BL21 (DE3) competent cells (INVITROGEN).
The cells were inoculated into LB medium (1% triptone, 0.5% yeast extract, 1% sodium chloride) containing […] of kanamycin, and then precultured at 37° C. overnight. The precultured cells were inoculated into TB medium (1.2% triptone, 2.4% yeast extract, 9.4% dipotassium hydrogen phosphate, 2.2% potassium dihydrogen phosphate, 0.8% glycerin) containing […] of kanamycin, and the cultured at 37° C., to thereby induce SPR expression with 0.5 mM IPTG for four hours. After the induction, the cells were collected by centrifugation at 6,000 G for 30 minutes and washed with PBS, and the washing was discarded. The washed cells were suspended in buffer solution A (20 mM MES, pH 6.5, 100 mM sodium chloride, 1 mM DTT, 5 mM imidazole). Subsequently, the cell suspension was subjected to ultrasonic treatment to thereby homogenize the cells. The cell homogenate was clarified by centrifugation at 30,000 G for 60 minutes and then filtered with a […]. The filtrate was allowed to pass through HisTrapFF 5 mL column (GE Healthcare). The resin was washed with buffer A, and then gradient elution was performed with buffer B (20 mM MES, pH 6.5, 100 mM sodium chloride, 1 mM DTT, 500 mM imidazole). Thrombin was added to a fraction containing the SPR protein, and the mixture was dialyzed in buffer A overnight, to thereby cleave the tag. After removal of the thrombin by with Benzamidine Sepharose 4 FF (GE Healthcare), the resultant product was allowed to pass through the HisTrapFF 5 mL column, to thereby remove the tag, followed by concentration with Amicon Ultra 10,000 NMWL (Merck Millipore). The concentrate was purified by gel filtration using HiLoad 16/60 Superdex 75 pg (GE Healthcare) equilibrated with buffer C (20 mM MES, pH 6.5, 100 mM sodium chloride, 1 mM DTT). The fraction containing SPR protein was concentrated and then cryopreserved at −80° C.
Human SPR inhibitory activity was measured by using a 384-well low adsorption clear plate (Greiner) with buffer D containing 100 mM Tris-HCl (pH 7.5) (Thermo Fisher Scientific) and 0.01% bovine serum albumin (Sigma). A compound was diluted with DMSO to achieve seven different final concentrations; i.e., 0.14 nM, 0.41 nM, 1.23 nM, 3.7 nM, 11.1 nM, 33 nM, and 100 nM. A 1.5 μL aliquot of the compound solution prepared with DMSO was diluted with 250 μL of buffer D, and the thus-diluted solution was dispensed into the 384-well plate at 20 μL/well. Thereafter, human SPR was diluted with buffer D to 150 ng/mL and then dispensed into the 384-well plate at 20 μL/well. Subsequently, 40 μL of ultrapure water containing 120 μM sepiapterin (produced by the method described in L-Sepiapterin, Heterocycles, 2008, 76, 1329-1335 and WO 2013/168693) and 160 μM NADPH (Nacalai) was added to each well, and then reaction was initiated. The reaction mixture was incubated at room temperature for 240 minutes. Thereafter, in order to determine the amount of sepiapterin, the absorbance at 420 nm was measured by applying the 384-well plate to EnSpire multimode plate reader (Perkin Elmer). The percent inhibition (%) of human SPR by the test compound was calculated by the following formula.
Turning to `CC(C)Cn1c(=O)c(C(=O)NC2CC2)c(O)n2ncc(/C=C/C(=O)N3CCOC(C)(C)C3)c12` [compound 489, (E)-N-Cyclopropyl-3-(3-(2,2-dimethylmorpholino)-3-oxoprop-1-en-1-yl)-7-hydroxy-4-isobutyl-5-oxo-4,5-dihydropyrazolo[1,5-a]pyrimidine-6-carboxamide], the IC50 was 0.93 nM.
On the same count and under the same terms, under `CC(C)Cn1c(=O)c(C(=O)NC2CC2)c(O)n2ncc(/C=C/C(=O)N3CCN(C4CC4)CC3)c12` [compound 471, (E)-N-Cyclopropyl-3-(3-(4-cyclopropylpiperazin-1-yl)-3-oxoprop-1-en-1-yl)-7-hydroxy-4-isobutyl-5-oxo-4,5-dihydropyrazolo[1,5-a]pyrimidine-6-carboxamide] stands 1.18 nM.
On the same count and under the same terms, with `Cc1nn2c(O)c(C(=O)NC3CC3)c(=O)n(CC(C)C)c2c1/C=C/C(=O)N1CCc2cc(F)ccc21` [Synthesis Example 668, (E)-N-Cyclopropyl-3-(3-(5-fluoroindolin-1-yl)-3-oxoprop-1-en-1-yl)-7-hydroxy-4-isobutyl-2-methyl-5-oxo-4,5-dihydropyrazolo[1,5-a]pyrimidine-6-carboxamide] the figure was 7.87 nM; with `CC(C)Cn1c(=O)c(C(=O)NC2CC2)c(O)n2ncc(/C=C/C(=O)N3CCC[C@H]3C(=O)N(C)C)c12` [compound 587, (S,E)-N-Cyclopropyl-3-(3-(2-(dimethylcarbamoyl)pyrrolidin-1-yl)-3-oxoprop-1-en-1-yl)-7-hydroxy-4-isobutyl-5-oxo-4,5-dihydropyrazolo[1,5-a]pyrimidine-6-carboxamide], 1.37 nM.
On the same count and under the same terms, under `CC(C)(C)Cn1c(=O)c(C(=O)NC2CC2)c(O)n2nc(N)c(/C=C/C3CC3)c12` [Synthesis Example 440, (E)-2-Amino-N-cyclopropyl-3-(2-cyclopropylvinyl)-7-hydroxy-4-neopentyl-5-oxo-4,5-dihydropyrazolo[1,5-a]pyrimidine-6-carboxamide hydrochloride] stands 1.2 nM; under `COC[C@@H]1CCCN1C(=O)/C=C/c1c(C)nn2c(O)c(C(=O)NC3CC3)c(=O)n(CC(C)C)c12` [Synthesis Example 613, (S,E)-N-Cyclopropyl-7-hydroxy-4-isobutyl-3-(3-(2-(methoxymethyl)pyrrolidin-1-yl)-3-oxoprop-1-en-1-yl)-2-methyl-5-oxo-4,5-dihydropyrazolo[1,5-a]pyrimidine-6-carboxamide], 1.04 nM.
Take `Cc1nn2c(O)c(C(=O)NC3CC3)c(=O)n(CC(C)C)c2c1/C=C/C(=O)N(C)CC#N` [Synthesis Example 681, (E)-3-(3-((Cyanomethyl)(methyl)amino)-3-oxoprop-1-en-1-yl)-N-cyclopropyl-7-hydroxy-4-isobutyl-2-methyl-5-oxo-4,5-dihydropyrazolo[1,5-a]pyrimidine-6-carboxamide]: the IC50 is 0.64 nM.
As to `COC1CN(C(=O)/C=C/c2cnn3c(O)c(C(=O)NC4CC4)c(=O)n(CC(C)C)c23)C1` [compound 558, (E)-N-Cyclopropyl-7-hydroxy-4-isobutyl-3-(3-(3-methoxyazetidin-1-yl)-3-oxoprop-1-en-1-yl)-5-oxo-4,5-dihydropyrazolo[1,5-a]pyrimidine-6-carboxamide], the IC50 was 1.14 nM.
`CCC(N)c1cc2n(CC(C)(C)C)c(=O)c(C(=O)NC3CC3)c(O)n2n1` (racemic) [Synthesis Example 280, 2-(1-Aminopropyl)-N-cyclopropyl-7-hydroxy-4-neopentyl-5-oxo-4,5-dihydropyrazolo[1,5-a]pyrimidine-6-carboxamide hydrochloride (racemate)]: the IC50 stood at 5.64 nM.
The same measure, in the same setting: under `COC[C@H]1CCCN1C(=O)/C=C/c1cnn2c(O)c(C(=O)NC3CC3)c(=O)n(CC(C)C)c12` [compound 548, (R,E)-N-Cyclopropyl-7-hydroxy-4-isobutyl-3-(3-(2-(methoxymethyl)pyrrolidin-1-yl)-3-oxoprop-1-en-1-yl)-5-oxo-4,5-dihydropyrazolo[1,5-a]pyrimidine-6-carboxamide] stands 0.79 nM.
On the same count and under the same terms, with `Cc1c(N)nn2c(O)c(C(=O)NC3CC3)c(=O)n(CC(C)(C)C)c12` [Synthesis Example 437, 2-Amino-N-cyclopropyl-7-hydroxy-3-methyl-4-neopentyl-5-oxo-4,5-dihydropyrazolo[1,5-a]pyrimidine-6-carboxamide hydrochloride] the figure was 1.38 nM.
On to `CC(C)Cn1c(=O)c(C(=O)N[C@@H](C)C(F)(F)F)c(O)n2ncc(/C=C/C(=O)N3CCOCC3)c12` [compound 545, (S,E)-7-Hydroxy-4-isobutyl-3-(3-morpholino-3-oxoprop-1-en-1-yl)-5-oxo-N-(1,1,1-trifluoropropan-2-yl)-4,5-dihydropyrazolo[1,5-a]pyrimidine-6-carboxamide], for which the IC50 is 0.66 nM.
`CC(C)Cn1c(=O)c(C(=O)NC2CC2)c(O)n2ncc(/C=C/c3cccnc3)c12` [Synthesis Example 247, (E)-N-Cyclopropyl-7-hydroxy-4-isobutyl-5-oxo-3-(2-(pyridin-3-yl)vinyl)-4,5-dihydropyrazolo[1,5-a]pyrimidine-6-carboxamide]: the IC50 amounted to 0.94 nM.
The same measure, in the same setting: with `CC(C)Cn1c(=O)c(C(=O)NC2CC2)c(O)n2ncc(/C=C/C(=O)N3CCNCC3)c12` [compound 508, (E)-N-Cyclopropyl-7-hydroxy-4-isobutyl-5-oxo-3-(3-oxo-3-(piperazin-1-yl)prop-1-en-1-yl)-4,5-dihydropyrazolo[1,5-a]pyrimidine-6-carboxamide hydrochloride] the figure was 0.77 nM; with `CC(C)Cn1c(=O)c(C(=O)NC2CC2)c(O)n2ncc(COc3cccnc3)c12` [Synthesis Example 259, N-Cyclopropyl-7-hydroxy-4-isobutyl-5-oxo-3-((pyridin-3-yloxy)methyl)-4,5-dihydropyrazolo[1,5-a]pyrimidine-6-carboxamide], 0.18 nM; with `CC(C)Cn1c(=O)c(C(=O)NC2CC2)c(O)n2ncc(/C=C/C(=O)N3CCC[C@H]3C(C)C)c12` [compound 600, (S,E)-N-Cyclopropyl-7-hydroxy-4-isobutyl-3-(3-(2-isopropylpyrrolidin-1-yl)-3-oxoprop-1-en-1-yl)-5-oxo-4,5-dihydropyrazolo[1,5-a]pyrimidine-6-carboxamide], 1.47 nM.
Same read-out and setting: under `CC(=O)N1CCC(C)(/C=C/c2cnn3c(O)c(C(=O)NC4CC4)c(=O)n(CC(C)C)c23)CC1` [Synthesis Example 245, (E)-3-(2-(1-Acetyl-4-methylpiperidin-4-yl)vinyl)-N-cyclopropyl-7-hydroxy-4-isobutyl-5-oxo-4,5-dihydropyrazolo[1,5-a]pyrimidine-6-carboxamide] stands 1.08 nM; under `CNc1nn2c(O)c(C(=O)NC3CC3)c(=O)n(CC(C)C)c2c1/C=C/C(=O)N1CCC(F)(F)C1` [Synthesis Example 428, (E)-N-Cyclopropyl-3-(3-(3,3-difluoropyrrolidin-1-yl)-3-oxoprop-1-en-1-yl)-7-hydroxy-4-isobutyl-2-(methylamino)-5-oxo-4,5-dihydropyrazolo[1,5-a]pyrimidine-6-carboxamide], 0.84 nM.

The experiment is the same for the next values; noted with them: sepiapterin absorbance, Table 41, read-out: concentration at 50% inhibition of human SPR (IC50).
On to `Cc1nn2c(O)c(C(=O)NC3CC3)c(=O)n(CC(C)C)c2c1/C=C/C(=O)N1CCOc2ccccc21` [Synthesis Example 696, (E)-N-Cyclopropyl-3-(3-(2,3-dihydro-4H-benz[b][1,4]oxazin-4-yl)-3-oxoprop-1-en-1-yl)-7-hydroxy-4-isobutyl-2-methyl-5-oxo-4,5-dihydropyrazolo[1,5-a]pyrimidine-6-carboxamide], for which the IC50 was determined as 1.71 nM.
